Publication PMC5218480 (PLoS ONE, 2017)

Test system: MV-4-11 cells
Assay: Gene expression microarray analysis (Affymetrix PrimeView) and GSEA
Type: cell-based, human
Set-up: RFU PODN (11730768_x_at) / Fold change /veh PODN (11730768_x_at) / RFU LINC00158 (11744669_a_at) / Fold change /veh LINC00158 (11744669_a_at) / RFU DUSP10 (11751237_a_at) / Fold change /veh DUSP10 (11751237_a_at) / RFU ID3 (11757404_x_at) / Fold change /veh ID3 (11757404_x_at) / RFU PLEKHG5 (11737974_s_at) / Fold change /veh PLEKHG5 (11737974_s_at) / RFU LRRC4B (11730491_at) / Fold change /veh LRRC4B (11730491_at) / RFU GIMAP4 (11747438_a_at) / Fold change /veh GIMAP4 (11747438_a_at) / RFU KRT8 (11758183_x_at) / Fold change /veh KRT8 (11758183_x_at) / RFU CNN1 (11734310_a_at) / Fold change /veh CNN1 (11734310_a_at) / RFU VPS37D (11726825_at) / Fold change /veh VPS37D (11726825_at) / RFU C10orf10 (11716522_x_at) / Fold change /veh C10orf10 (11716522_x_at) / RFU KIR2DL2 /// KIR2DL4 /// KIR2DL5A /// KIR2DL5B /// KIR2DS1 /// KIR2DS2 /// KIR2DS3 /// KIR2DS4 /// KIR3DL3 /// KIR3DL3 /// KIR3DS1 (11738374_at) / Fold change /veh KIR2DL2 /// KIR2DL4 /// KIR2DL5A /// KIR2DL5B /// KIR2DS1 /// KIR2DS2 /// KIR2DS3 /// KIR2DS4 /// KIR3DL3 /// KIR3DL3 /// KIR3DS1 (11738374_at) / RFU C1QL1 (11718748_at) / Fold change /veh C1QL1 (11718748_at) / RFU TMPRSS4 (11747572_a_at) / Fold change /veh TMPRSS4 (11747572_a_at) / RFU HAMP (11756126_x_at) / Fold change /veh HAMP (11756126_x_at) / RFU RNFT2 (11725882_a_at) / Fold change /veh RNFT2 (11725882_a_at) / RFU NR4A2 (11747474_a_at) / Fold change /veh NR4A2 (11747474_a_at) / RFU ABCC12 (11746883_a_at) / Fold change /veh ABCC12 (11746883_a_at) / RFU TMEM136 (11760407_x_at) / Fold change /veh TMEM136 (11760407_x_at) / RFU CLDN22 /// WWC2 (11732394_at) / Fold change /veh CLDN22 /// WWC2 (11732394_at) / RFU HLA-DPB1 (11760878_x_at) / Fold change /veh HLA-DPB1 (11760878_x_at) / RFU SPINT1 (11716480_a_at) / Fold change /veh SPINT1 (11716480_a_at) / RFU GAP43 (11754022_s_at) / Fold change /veh GAP43 (11754022_s_at) / RFU A4GNT (11735810_at) / Fold change /veh A4GNT (11735810_at) / RFU PRB3 (11715151_x_at) / Fold change /veh PRB3 (11715151_x_at) / RFU TUBB4B (11761932_at) / Fold change /veh TUBB4B (11761932_at) / RFU CAPN14 (11732068_a_at) / Fold change /veh CAPN14 (11732068_a_at) / RFU TMCC2 (11721928_a_at) / Fold change /veh TMCC2 (11721928_a_at) / RFU IRGQ (11745062_a_at) / Fold change /veh IRGQ (11745062_a_at) / RFU FAM174B (11720279_a_at) / Fold change /veh FAM174B (11720279_a_at) / RFU TMPRSS4 (11748680_a_at) / Fold change /veh TMPRSS4 (11748680_a_at) / RFU FAM212B (11763350_a_at) / Fold change /veh FAM212B (11763350_a_at) / RFU PLEKHG5 (11743358_a_at) / Fold change /veh PLEKHG5 (11743358_a_at) / RFU ZSCAN30 (11745921_a_at) / Fold change /veh ZSCAN30 (11745921_a_at) / RFU CMKLR1 (11741424_a_at) / Fold change /veh CMKLR1 (11741424_a_at) / RFU LOC101060620 /// MAPK8IP1 (11723275_at) / Fold change /veh LOC101060620 /// MAPK8IP1 (11723275_at) / RFU SPTSSB (11747773_x_at) / Fold change /veh SPTSSB (11747773_x_at) / RFU PRSS12 (11739890_at) / Fold change /veh PRSS12 (11739890_at) / RFU BIN1 (11741810_x_at) / Fold change /veh BIN1 (11741810_x_at) / RFU WNT11 (11732464_a_at) / Fold change /veh WNT11 (11732464_a_at) / RFU C10orf10 (11716521_a_at) / Fold change /veh C10orf10 (11716521_a_at) / RFU C5orf56 (11738089_at) / Fold change /veh C5orf56 (11738089_at) / RFU CYB561 (11721691_x_at) / Fold change /veh CYB561 (11721691_x_at) / RFU ANKRD19P (11752326_a_at) / Fold change /veh ANKRD19P (11752326_a_at) / RFU OR2T12 /// OR2T33 /// OR2T8 (11738714_s_at) / Fold change /veh OR2T12 /// OR2T33 /// OR2T8 (11738714_s_at) / RFU VCAN (11748164_a_at) / Fold change /veh VCAN (11748164_a_at) / RFU JSRP1 (11732532_at) / Fold change /veh JSRP1 (11732532_at) / RFU KRTAP10-11 (11738290_x_at) / Fold change /veh KRTAP10-11 (11738290_x_at) / RFU MYO3A (11730013_a_at) / Fold change /veh MYO3A (11730013_a_at) / RFU EBF3 (11725865_a_at) / Fold change /veh EBF3 (11725865_a_at) / RFU CAMK2N1 (11719241_x_at) / Fold change /veh CAMK2N1 (11719241_x_at) / RFU C5orf56 (11738088_a_at) / Fold change /veh C5orf56 (11738088_a_at) / RFU OLFML3 (11715873_a_at) / Fold change /veh OLFML3 (11715873_a_at) / RFU LOC100653217 /// NTM (11731650_a_at) / Fold change /veh LOC100653217 /// NTM (11731650_a_at) / RFU MAPK11 (11762145_a_at) / Fold change /veh MAPK11 (11762145_a_at) / RFU FIZ1 (11724087_x_at) / Fold change /veh FIZ1 (11724087_x_at) / RFU OASL (11726364_x_at) / Fold change /veh OASL (11726364_x_at) / RFU SOX15 (11748057_x_at) / Fold change /veh SOX15 (11748057_x_at) / RFU CD79A (11719716_a_at) / Fold change /veh CD79A (11719716_a_at) / RFU HIST1H1D (11736915_at) / Fold change /veh HIST1H1D (11736915_at) / RFU CASKIN2 (11723855_a_at) / Fold change /veh CASKIN2 (11723855_a_at) / RFU LOC730098 (11760151_x_at) / Fold change /veh LOC730098 (11760151_x_at) / RFU OR4N2 (11742367_at) / Fold change /veh OR4N2 (11742367_at) / RFU PRRT2 (11749266_a_at) / Fold change /veh PRRT2 (11749266_a_at) / RFU SNX32 (11753110_a_at) / Fold change /veh SNX32 (11753110_a_at) / RFU CDHR5 (11726645_a_at) / Fold change /veh CDHR5 (11726645_a_at) / RFU RCAN1 (11760418_a_at) / Fold change /veh RCAN1 (11760418_a_at) / RFU FAM167A (11723789_a_at) / Fold change /veh FAM167A (11723789_a_at) / RFU FAM26E (11764081_at) / Fold change /veh FAM26E (11764081_at) / RFU ISYNA1 (11749810_s_at) / Fold change /veh ISYNA1 (11749810_s_at) / RFU ACY1 (11761880_at) / Fold change /veh ACY1 (11761880_at) / RFU 11764098_at / Fold change /veh 11764098_at / RFU SAMD14 (11745864_x_at) / Fold change /veh SAMD14 (11745864_x_at) / RFU NPB (11741838_a_at) / Fold change /veh NPB (11741838_a_at) / RFU TMPRSS6 (11731388_a_at) / Fold change /veh TMPRSS6 (11731388_a_at) / RFU KRTAP10-2 (11738614_at) / Fold change /veh KRTAP10-2 (11738614_at) / RFU ARHGAP8 /// PRR5-ARHGAP8 (11727945_x_at) / Fold change /veh ARHGAP8 /// PRR5-ARHGAP8 (11727945_x_at) / RFU KRTAP5-7 /// NADSYN1 (11734609_at) / Fold change /veh KRTAP5-7 /// NADSYN1 (11734609_at) / RFU RASL12 (11751679_a_at) / Fold change /veh RASL12 (11751679_a_at) / RFU CDKN2B (11736163_a_at) / Fold change /veh CDKN2B (11736163_a_at) / RFU PRF1 (11729649_at) / Fold change /veh PRF1 (11729649_at) / RFU, ZNF638 /// ZNF638-IT1 / Fold change vs veh, ZNF638 /// ZNF638-IT1 / RFU, PANK3 / Fold change vs veh, PANK3 / RFU, SH3YL1 / Fold change vs veh, SH3YL1 / RFU, ZEB2 / Fold change vs veh, ZEB2 / RFU, NRIP1 / Fold change vs veh, NRIP1 / RFU, PTTG1IP / Fold change vs veh, PTTG1IP / RFU, CAPN2 / Fold change vs veh, CAPN2 / RFU, MED14 / Fold change vs veh, MED14 / RFU, SNORA58 / Fold change vs veh, SNORA58 / RFU, C1orf63 / Fold change vs veh, C1orf63 / RFU, LRRFIP1 / Fold change vs veh, LRRFIP1 / RFU, NDUFAF7 / Fold change vs veh, NDUFAF7 / RFU, SLC12A2 / Fold change vs veh, SLC12A2 / RFU, IBTK / Fold change vs veh, IBTK / RFU, ESF1 / Fold change vs veh, ESF1 / Fold change vs veh, TMEM50B / RFU, TAOK1 / Fold change vs veh, TAOK1 / RFU, ACBD3 / Fold change vs veh, ACBD3 / RFU, TMA16 / Fold change vs veh, TMA16 / RFU, RWDD3 / Fold change vs veh, RWDD3 / RFU, BCAT1 / Fold change vs veh, BCAT1 / RFU, EDEM3 / Fold change vs veh, EDEM3 / RFU, TMEM33 / Fold change vs veh, TMEM33 / RFU, WDR75 / Fold change vs veh, WDR75 / RFU, AHCTF1 / Fold change vs veh, AHCTF1 / RFU, TFRC / Fold change vs veh, TFRC / RFU, ZDHHC17 / Fold change vs veh, ZDHHC17 / RFU, NOM1 / Fold change vs veh, NOM1 / RFU, ARL8B / Fold change vs veh, ARL8B / RFU, ZBTB11 / Fold change vs veh, ZBTB11 / RFU, TAMM41 / Fold change vs veh, TAMM41 / RFU, KIAA1704 /// LOC100996395 / Fold change vs veh, KIAA1704 /// LOC100996395 / RFU, ING1 / Fold change vs veh, ING1 / RFU, TRMT61B / Fold change vs veh, TRMT61B / RFU, FUBP3 / Fold change vs veh, FUBP3 / RFU, TP53 / Fold change vs veh, TP53 / RFU, TNKS2 / Fold change vs veh, TNKS2 / RFU, ZFP14 / Fold change vs veh, ZFP14 / RFU, ACTR2 / Fold change vs veh, ACTR2 / RFU, PPP3R1 / Fold change vs veh, PPP3R1 / RFU, PIK3R1 / Fold change vs veh, PIK3R1 / RFU, HNRNPA1 / Fold change vs veh, HNRNPA1 / RFU, RNF170 / Fold change vs veh, RNF170 / RFU, ZNF28 / Fold change vs veh, ZNF28 / RFU, RNGTT / Fold change vs veh, RNGTT / RFU, OGT / Fold change vs veh, OGT / RFU, BRD1 / Fold change vs veh, BRD1 / RFU, MARS / Fold change vs veh, MARS / RFU, ZNF655 / Fold change vs veh, ZNF655 / RFU, FAHD1 / Fold change vs veh, FAHD1 / RFU, BDP1 / Fold change vs veh, BDP1 / RFU, LRRCC1 / Fold change vs veh, LRRCC1 / RFU, ARID1A / Fold change vs veh, ARID1A / RFU, ZNF146 / Fold change vs veh, ZNF146 / RFU, ZNF330 / Fold change vs veh, ZNF330 / RFU, GPN3 / Fold change vs veh, GPN3 / RFU, C9orf123 / Fold change vs veh, C9orf123 / RFU, N4BP2L2 / Fold change vs veh, N4BP2L2 / RFU, ARFIP1 / Fold change vs veh, ARFIP1 / RFU, FAM179B / Fold change vs veh, FAM179B / RFU, BCL10 / Fold change vs veh, BCL10 / RFU, UHRF1BP1L / Fold change vs veh, UHRF1BP1L / RFU, BET1 / Fold change vs veh, BET1 / RFU, CNOT2 / Fold change vs veh, CNOT2 / RFU, ZNF268 / Fold change vs veh, ZNF268 / Fold change vs veh, ZNF507 / RFU, DGCR2 / Fold change vs veh, DGCR2 / RFU, WDSUB1 / Fold change vs veh, WDSUB1 / Fold change vs veh, HSP90B1 /// MIR3652 / RFU, ADSS / Fold change vs veh, ADSS / RFU, GK / Fold change vs veh, GK / RFU, ZNF148 / Fold change vs veh, ZNF148 / RFU, TAF9 / Fold change vs veh, TAF9 / RFU, SLC1A5 / Fold change vs veh, SLC1A5 / RFU, SLMO2 / Fold change vs veh, SLMO2 / RFU, ABCC4 / Fold change vs veh, ABCC4 / RFU, LOC101060439 /// RAP1B / Fold change vs veh, LOC101060439 /// RAP1B / RFU, RFX7 / Fold change vs veh, RFX7 / RFU, GTPBP10 / Fold change vs veh, GTPBP10 / RFU, CNEP1R1 / Fold change vs veh, CNEP1R1 / RFU, BIVM-ERCC5 /// ERCC5 / Fold change vs veh, BIVM-ERCC5 /// ERCC5 / RFU, ILF3 / Fold change vs veh, ILF3 / RFU 11762660_at / Fold change /veh 11762660_at / RFU VCAN (11757783_s_at) / Fold change /veh VCAN (11757783_s_at) / RFU DDX43 (11728927_at) / Fold change /veh DDX43 (11728927_at) / RFU KRT8 (11758188_x_at) / Fold change /veh KRT8 (11758188_x_at) / RFU NKD1 (11759106_at) / Fold change /veh NKD1 (11759106_at) / RFU SRD5A1 (11742802_a_at) / Fold change /veh SRD5A1 (11742802_a_at) / RFU TPSAB1 /// TPSB2 (11721975_s_at) / Fold change /veh TPSAB1 /// TPSB2 (11721975_s_at) / RFU GSTM3 (11746129_a_at) / Fold change /veh GSTM3 (11746129_a_at) / RFU IL23R (11737362_x_at) / Fold change /veh IL23R (11737362_x_at) / RFU TMEM51 (11727254_a_at) / Fold change /veh TMEM51 (11727254_a_at) / RFU PIWIL2 (11732686_x_at) / Fold change /veh PIWIL2 (11732686_x_at) / RFU ORM1 (11744905_x_at) / Fold change /veh ORM1 (11744905_x_at) / RFU CCDC152 (11743942_at) / Fold change /veh CCDC152 (11743942_at) / RFU ECM1 (11717891_a_at) / Fold change /veh ECM1 (11717891_a_at) / RFU IL23R (11748794_a_at) / Fold change /veh IL23R (11748794_a_at) / RFU TNFAIP8L3 (11732012_x_at) / Fold change /veh TNFAIP8L3 (11732012_x_at) / RFU MBOAT4 (11741988_at) / Fold change /veh MBOAT4 (11741988_at) / RFU 11764193_at / Fold change /veh 11764193_at / RFU TMEM53 (11763286_at) / Fold change /veh TMEM53 (11763286_at) / RFU MAGEB2 (11727129_at) / Fold change /veh MAGEB2 (11727129_at) / RFU TMEM200A (11744735_a_at) / Fold change /veh TMEM200A (11744735_a_at) / RFU CCDC152 (11751479_a_at) / Fold change /veh CCDC152 (11751479_a_at) / RFU FAM211A (11726209_a_at) / Fold change /veh FAM211A (11726209_a_at) / RFU RGS16 (11746705_a_at) / Fold change /veh RGS16 (11746705_a_at) / RFU VCAN (11755009_s_at) / Fold change /veh VCAN (11755009_s_at) / RFU RHOB (11743442_s_at) / Fold change /veh RHOB (11743442_s_at) / RFU RGS16 (11720943_a_at) / Fold change /veh RGS16 (11720943_a_at) / RFU RGS16 (11720944_at) / Fold change /veh RGS16 (11720944_at) / RFU, VPS4B / Fold change vs veh, VPS4B / RFU, CREB1 / Fold change vs veh, CREB1 / RFU, DNAJC13 / Fold change vs veh, DNAJC13 / RFU, GNAQ / Fold change vs veh, GNAQ / RFU, CDK5R1 / Fold change vs veh, CDK5R1 / RFU, ZRANB3 / Fold change vs veh, ZRANB3 / RFU, CUL4A / Fold change vs veh, CUL4A / RFU, CCNY / Fold change vs veh, CCNY / RFU, UFL1 / Fold change vs veh, UFL1 / RFU, COG3 / Fold change vs veh, COG3 / RFU, DIAPH2 / Fold change vs veh, DIAPH2 / RFU, SKA2 / Fold change vs veh, SKA2 / RFU, AFF3 / Fold change vs veh, AFF3 / RFU, LMF1 / Fold change vs veh, LMF1 / RFU, IPO11 / Fold change vs veh, IPO11 / RFU, DFFB / Fold change vs veh, DFFB / RFU, FOXP1 / Fold change vs veh, FOXP1 / RFU, CARD8 / Fold change vs veh, CARD8 / RFU, STRN3 / Fold change vs veh, STRN3 / RFU, ADK / Fold change vs veh, ADK / RFU, RASSF2 / Fold change vs veh, RASSF2 / RFU, WIPF1 / Fold change vs veh, WIPF1 / RFU, LARP1B / Fold change vs veh, LARP1B / RFU, RASA1 / Fold change vs veh, RASA1 / RFU, RB1 / Fold change vs veh, RB1 / RFU, PPFIA1 / Fold change vs veh, PPFIA1 / RFU, MAT2A / Fold change vs veh, MAT2A / RFU, CCT5 / Fold change vs veh, CCT5 / RFU, WDR92 / Fold change vs veh, WDR92 / RFU, CUX1 / Fold change vs veh, CUX1 / RFU, TTC7A / Fold change vs veh, TTC7A / RFU, TMEM135 / Fold change vs veh, TMEM135 / RFU, DEPTOR / Fold change vs veh, DEPTOR / RFU, CPM / Fold change vs veh, CPM / RFU, DNAJB6 / Fold change vs veh, DNAJB6 / RFU, CACNA2D3 / Fold change vs veh, CACNA2D3 / RFU, DTX4 / Fold change vs veh, DTX4 / RFU, TFCP2 / Fold change vs veh, TFCP2 / RFU, GMCL1 /// GMCL1P1 / Fold change vs veh, GMCL1 /// GMCL1P1 / RFU, AEBP2 / Fold change vs veh, AEBP2 / RFU, SNHG1 /// SNORD22 /// SNORD25 /// SNORD26 /// SNORD27 /// SNORD28 /// SNORD29 /// SNORD31 / Fold change vs veh, SNHG1 /// SNORD22 /// SNORD25 /// SNORD26 /// SNORD27 /// SNORD28 /// SNORD29 /// SNORD31 / Fold change (Aza/veh), C12orf56 (ProbeSet 11735607_a_at) / Fold change (ACY-1035/veh), C12orf56 (ProbeSet 11735607_a_at) / Fold change (Aza/veh), FGFR1OP (ProbeSet 11751329_s_at) / Fold change (ACY-1035/veh), FGFR1OP (ProbeSet 11751329_s_at) / Fold change (Aza/veh), VPS36 (ProbeSet 11739960_a_at) / Fold change (ACY-1035/veh), VPS36 (ProbeSet 11739960_a_at) / RFU SYPL1 (11715823_x_at) / Fold change /veh SYPL1 (11715823_x_at) / RFU IGFBP7 (11715501_s_at) / Fold change /veh IGFBP7 (11715501_s_at) / RFU REEP3 (11722064_at) / Fold change /veh REEP3 (11722064_at) / RFU IGLL1 (11728026_x_at) / Fold change /veh IGLL1 (11728026_x_at): dose or concentration left out as unconfirmed
Settings: ProbeSet 11738335_x_at; LIST B

## Nc1ccc(-c2cccs2)cc1NC(=O)c1ccc2c(c1)cc(C1CC1)n2CCN1CCOCC1 [ACY-1035]
  Fold change vs veh, TP53: 0.84
